Test results taken from PMC9019904, “AD Informer Set: Chemical tools to facilitate Alzheimer's disease drug discovery” (Alzheimer's & Dementia : Translational Research & Clinical …, 2022).
Values after ≈ are worked out from the molar mass of the structure shown.

What was measured:
[1] = Kinetic solubility in aqueous buffer pH 7.4 by total chemiluminescent nitrogen determination (Analiza); conditions: aqueous buffer, pH 7.4, aqueous buffer, kinetic from dmso stock
[2] = test system: cellular system; conditions: published cellular activity at 10 μM; cited from earlier work
[3] = test system: BV2 (mouse microglia) cell line; test: pHrodo-myelin phagocytosis/cell viability high content imaging assay: viability (cell count, nuclear area, nuclear intensity); conditions: BV2 cells, 10 μM, cell count <70% control
How it was run: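 Viability was read as total cell count per well by high-content imaging, with mean average nuclear intensity per cell profiling apoptosis (rise early, fall late). Compounds were given at 10 μM for 48 h, pHrodo-myelin being added for the final 20 h. Values are means of two points as % untreated control.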

[4] = test system: BV2 (mouse microglia) cell line; test: pHrodo-myelin phagocytosis/cell viability high content imaging assay: phagocytosis signal; type: cell-based; conditions: BV2 cells, 10 μM
How it was run: (§1)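 Cells receive pHrodo-myelin, then are imaged at high content approximately 22 hours later. Phagocytosis signal and viability are captured in the same run. Three measurements are extracted per well.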

[5] = test system: HMC3 (human microglia) cell line; test: as above; type: cell-based; conditions: HMC3 cells, 10 μM
How it was run: as §1

Row | SMILES | solubility kinetic [1] [µM] | Reported as cell active (<10 μM) [2] | Mouse microglial cytotoxicity at 10 μM (<70% control) [3] | Stimulation of mouse microglial phagocytosis at 10 μM (>150% control) [4] | Inhibition of human microglial phagocytosis at 10 μM (<70% control) [5] | Inhibition of mouse microglial phagocytosis at 10 μM (<70% control) [4]
1 | CN(CCOc1ccc(CC2SC(=O)NC2=O)cc1)c1ccccn1 (stereo not shown) [Rosiglitazone] | 57 (≈ 20.4 µg/mL) | Y (Published data supports that the compound is active in a cellular system when dosed at 10 μM (Y/N)) |  |  |  | 
2 | CN1c2ccc([N+](=O)[O-])cc2N=C(c2ccc(C(=O)O)cc2)c2cc3c(cc21)C(C)(C)CCC3(C)C [HX531] | < 0.7 | Y (Published data supports that the compound is active in a cellular system when dosed at 10 μM (Y/N)) | Y (The compound was found to be cytotoxic (cell count threshold: <70% control) when murine immortalized microglial cells were dosed at 10 μM (Y: yes)) |  |  | 
3 | CCc1ccc(CCOc2ccc(CC3SC(=O)NC3=O)cc2)nc1 (stereo not shown) [Pioglitazone] | 3.2 (≈ 1.14 µg/mL) | Y (Published data supports that the compound is active in a cellular system when dosed at 10 μM (Y/N)) |  |  |  | 
4 | COc1ccc(CCN2CCN(CCCc3ccccc3)CC2)cc1OC.Cl.Cl [Cutamesine (SA 4503)] | 108 | Y (Published data supports that the compound is active in a cellular system when dosed at 10 μM (Y/N)) |  |  |  | 
5 | Oc1c(F)cc(-c2cnccc2-c2ccc(N3CCOCC3)cc2)cc1F [LJI308] | 3.7 (≈ 1.36 µg/mL) | Y (Published data supports that the compound is active in a cellular system when dosed at 10 μM (Y/N)) |  | Y (The compound was found to stimulate phagocytosis (response threshold: >150% control) when murine immortalized microglial cells were dosed at 10 μM (Y: yes)) |  | 
6 | C[C@@H]1O[C@@H](O[C@H]2[C@H](Oc3cc(O)c4c(c3)O[C@H](c3ccc(O)cc3)CC4=O)O[C@H](CO)[C@@H](O)[C@@H]2O)[C@H](O)[C@H](O)[C@H]1O [Naringin] |  | Y (Published data supports that the compound is active in a cellular system when dosed at 10 μM (Y/N)) |  | Y (The compound was found to stimulate phagocytosis (response threshold: >150% control) when murine immortalized microglial cells were dosed at 10 μM (Y: yes)) | Y (The compound was found to inhibit phagocytosis (response threshold: <70% control) when human immortalized microglial cells were dosed at 10 μM (Y: yes)) | 
7 | CCc1ccc(S(=O)(=O)c2ccccc2)cc1S(=O)(=O)NCCCN(C)C [sFRP-1 Inhibitor] | 164 (≈ 67.2 µg/mL) | Y (Published data supports that the compound is active in a cellular system when dosed at 10 μM (Y/N)) |  | Y (The compound was found to stimulate phagocytosis (response threshold: >150% control) when murine immortalized microglial cells were dosed at 10 μM (Y: yes)) |  | 
8 | C[C@H](CCCC(C)(C)O)[C@H]1CC[C@H]2[C@@H]3CC=C4C[C@@H](O)CC[C@]4(C)[C@H]3CC[C@]12C [25-Hydroxycholesterol] |  | Y (Published data supports that the compound is active in a cellular system when dosed at 10 μM (Y/N)) |  |  | Y (The compound was found to inhibit phagocytosis (response threshold: <70% control) when human immortalized microglial cells were dosed at 10 μM (Y: yes)) | Y (The compound was found to inhibit phagocytosis (response threshold: <70% control) when murine immortalized microglial cells were dosed at 10 μM (Y: yes))
9 | Cc1cc(C)nc(NC(=S)N2CCN(c3ccc(C(F)(F)F)cn3)CC2)c1 [NCT-502] | 2.6 (≈ 1.03 µg/mL) | Y (Published data supports that the compound is active in a cellular system when dosed at 10 μM (Y/N)) |  | Y (The compound was found to stimulate phagocytosis (response threshold: >150% control) when murine immortalized microglial cells were dosed at 10 μM (Y: yes)) |  | 
10 | Cc1c(COc2cc(OCc3cccc(C#N)c3)c(CN3C[C@H](O)C[C@@H]3C(=O)O)cc2Cl)cccc1-c1ccc2c(c1)OCCO2 [BMS-1166] | 2.1 (≈ 1.35 µg/mL) | Y (Published data supports that the compound is active in a cellular system when dosed at 10 μM (Y/N)) |  |  |  | 
11 | O=C1CCc2cc(OCCCCc3nnnn3C3CCCCC3)ccc2N1 [Cilostazol (OPC 13013)] | 58.5 (≈ 21.6 µg/mL) | Y (Published data supports that the compound is active in a cellular system when dosed at 10 μM (Y/N)) |  |  |  | 
12 | CCOC(=O)c1cccc(CNc2ccc(N(C)C(=O)Nc3ccccc3)cc2)c1 [GN6958 (Compound 8)] | 3.7 (≈ 1.49 µg/mL) | Y (Published data supports that the compound is active in a cellular system when dosed at 10 μM (Y/N)) |  | Y (The compound was found to stimulate phagocytosis (response threshold: >150% control) when murine immortalized microglial cells were dosed at 10 μM (Y: yes)) |  | 
13 | Nc1ncnc2c1nc(Sc1ccc(Cl)cc1)n2[C@@H]1O[C@@H]2COP(=O)([O-])O[C@H]2[C@H]1O.[Na+] [pCPT-cAMP] | 135 | Y (Published data supports that the compound is active in a cellular system when dosed at 10 μM (Y/N)) |  |  |  | 
14 | N[C@@H](CC(=O)Nc1ccc(Oc2cc(F)c(F)cc2Br)cc1)C(=O)O [WAY 213613] | 148 (≈ 61.5 µg/mL) | Y (Published data supports that the compound is active in a cellular system when dosed at 10 μM (Y/N)) | Y (The compound was found to be cytotoxic (cell count threshold: <70% control) when murine immortalized microglial cells were dosed at 10 μM (Y: yes)) | Y (The compound was found to stimulate phagocytosis (response threshold: >150% control) when murine immortalized microglial cells were dosed at 10 μM (Y: yes)) |  | 
15 | Nc1ncnc2c1nc(Br)n2[C@@H]1O[C@@H]2COP(=O)([O-])O[C@H]2[C@H]1O.[Na+] [8-Bromo-cAMP (sodium salt)] | 166 | Y (Published data supports that the compound is active in a cellular system when dosed at 10 μM (Y/N)) |  | Y (The compound was found to stimulate phagocytosis (response threshold: >150% control) when murine immortalized microglial cells were dosed at 10 μM (Y: yes)) |  | 
16 | Cc1cc2c(cc1C1(c3ccc(C(=O)O)cn3)CC1)C(C)(C)CCC2(C)C [LG 100268] | 92.8 (≈ 33.7 µg/mL) | Y (Published data supports that the compound is active in a cellular system when dosed at 10 μM (Y/N)) |  |  |  | 
17 | CCCc1cc(-c2nc(-c3ccc(C)cc3)cs2)ccn1 [Fatostatin] | < 1.1 | Y (Published data supports that the compound is active in a cellular system when dosed at 10 μM (Y/N)) | Y (The compound was found to be cytotoxic (cell count threshold: <70% control) when murine immortalized microglial cells were dosed at 10 μM (Y: yes)) | Y (The compound was found to stimulate phagocytosis (response threshold: >150% control) when murine immortalized microglial cells were dosed at 10 μM (Y: yes)) |  | 
18 | Cc1cc(C)nc(NC(=S)N2CCN(Cc3ccc(C(F)(F)F)cc3)CC2)c1 [NCT-503] | 34.3 (≈ 14 µg/mL) | Y (Published data supports that the compound is active in a cellular system when dosed at 10 μM (Y/N)) |  | Y (The compound was found to stimulate phagocytosis (response threshold: >150% control) when murine immortalized microglial cells were dosed at 10 μM (Y: yes)) |  | 
19 | CC(=O)O[C@@H]1[C@@H](OC(C)=O)[C@@H](O)[C@H](Oc2c(-c3ccc(O)cc3)oc3cc(O)cc(O)c3c2=O)O[C@H]1C [SL0101] |  | Y (Published data supports that the compound is active in a cellular system when dosed at 10 μM (Y/N)) |  |  | Y (The compound was found to inhibit phagocytosis (response threshold: <70% control) when human immortalized microglial cells were dosed at 10 μM (Y: yes)) | 
20 | C=CC[N+]1([C@H]2C[C@H]3[C@@H]4CC[C@H]5C[C@H](O)[C@@H](N6CCOCC6)C[C@]5(C)[C@H]4CC[C@]3(C)[C@H]2OC(C)=O)CCCC1 [Rocuronium Bromide] |  | Y (Published data supports that the compound is active in a cellular system when dosed at 10 μM (Y/N)) |  |  | Y (The compound was found to inhibit phagocytosis (response threshold: <70% control) when human immortalized microglial cells were dosed at 10 μM (Y: yes)) | 
21 | Cc1cc(C)nc(NS(=O)(=O)c2ccc(NC(=O)NC(=O)c3ccc(Cl)cc3Cl)cc2)n1 [LDN-193188] | 7.1 (≈ 3.51 µg/mL) | Y (Published data supports that the compound is active in a cellular system when dosed at 10 μM (Y/N)) |  |  |  | 
22 | CC(=O)c1nc([C@@H](O)[C@H](O)[C@H](O)CO)c[nH]1 [THI] | 186 (≈ 42.8 µg/mL) | Y (Published data supports that the compound is active in a cellular system when dosed at 10 μM (Y/N)) |  | Y (The compound was found to stimulate phagocytosis (response threshold: >150% control) when murine immortalized microglial cells were dosed at 10 μM (Y: yes)) |  | 
